What was measured:
[1] = system: E. coli (ATCC 25922); details: Macone 2014; cited from earlier work
[2] = 14C-Compound 1 excretion and kidney/blood distribution in rats; assay type: in vivo, rat
[3] = system: E. coli (ATCC 25922) biofilm; test: MBEC assay, inhibition of biofilm formation; assay type: cell-based, Escherichia coli
Experimental: The MBEC™ assay (formerly the Calgary biofilm device; Innovotech Inc., Canada) is a well-established high throughput assay for assessment of anti-biofilm activity of test agents in a 96-well format. Within this assay, the biofilm is formed on the plastic pegs of the plate lid. After inoculated media is introduced to the wells of the 96-well plate, the plate is placed in a shaking incubator to generate the necessary shear force for biofilm growth on the pegs. Following a suitable incubation time, the individual biofilms can be treated with varying concentrations of test agents (challenge plate). After the desired treatment time, the remaining biofilm-associated bacteria are retrieved from the pegs through sonication (recovery plate). Serial dilution and/or plating of the recovered bacterial suspension allow for the quantification of test agents' efficacy against pre-formed biofilms. Additionally, readout of the challenge plate from the biofilm treatment can be used to determine MIC values of test agents. The absence of growth in the recovery plate indicates complete biofilm eradication and the lowest concentration of a test agent that achieves this is designated as the minimum biofilm eradication concentration (MBEC). The MBEC™ assay is also amenable to assess potential synergistic effects of combination treatments, as well as efficacy of test agents in inhibiting or inducing biofilm formation.
The MBEC™ plates were inoculated with either 10^5 CFU/mL (low inoculum) or 10^7 CFU/mL (high inoculum) of stationary phase E. coli (ATCC 25922) with simultaneous addition of antibiotics to evaluate the progression of biofilm formation under antibiotic challenge. After 24 hour incubation, the bacteria were recovered and enumerated (as above). FIG. 6. […] FIG. 7.

[4] = system: E. coli; test: In vitro activity in urine relative to standard media; assay type: cell-based
[5] = system: human transporters and cytochrome P-450; details: cited from earlier work
[6] = 14C-labeled Compound 1 single oral 300 mg dose, plasma and urine; assay type: in vivo, human; details: for AUC(0-inf): 300 mg
Experimental: ^14C-labeled Compound 1 was administered as a single oral 300 mg dose to healthy human subjects. […] The concentrations of Compound 1 in urine are shown in Table 2 and indicate that urine concentrations exceed the plasma concentrations throughout the dosing interval. The AUC0-24 in urine was 186.1 μg*hr/ml.
While the driver of efficacy for Compound 1 in UTI is not completely known, and while not wishing to be bound by any particular theory, Applicant believes that maximizing time of urine concentration above pathogen MIC (ideally, throughout the dosing interval) is desirable. This belief is partly based on a clinical study that evaluated the disposition of a single 300 mg oral dose of ^14C-Compound 1. In this study, plasma concentrations were consistent with previous oral dosing studies (area under the concentration-time curve from 0 to infinity [AUC0-inf] 9.4 μg·h/mL), and it was determined that approximately 40% of the absorbed dose was eliminated in the urine. Urine concentrations of Compound 1 were not measured directly but estimated concentrations (based on portion of excreted radioactivity) exceeded plasma concentrations and averaged between 7.6 and 11.2 μg/mL over the 24 hours following dosing. These urine concentrations would exceed the MIC90 for ESBL-producing E. coli (4 μg/mL) by approximately 2-fold. It is also known from Applicant's clinical studies that exposure to Compound 1 based on plasma concentrations is approximately 50% higher at steady-state than after a single dose.

[7] = 14C-Compound 1 excretion and kidney/blood distribution in rats; assay type: in vivo, rat; details: for dose excreted in the urine: IV 5 mg/kg
Experimental: In rats, based on ^14C-Compound 1 dosed intravenously, approximately 30% of the dose (5 mg/kg) was excreted in the urine, with 25% excreted in the first 24 hours. The remainder of the dose was excreted into the feces. After IV dosing, the concentration of radioactivity in the kidney (cortex: 12,700 ng/g; medulla: 11,500 ng/g; pelvis: 11,300 ng/g) exceeded the blood concentration (1,570 ng/ml) 5 minutes post dose and at 24 hrs post dose (blood: 57.6 ng/ml; kidney cortex 318 ng/g; kidney medulla: 167 ng/g; kidney pelvis: 161 ng/g).

[8] = system: K. pneumoniae FQR; test: In vitro MIC, 2010 surveillance isolates; assay type: cell-based, Klebsiella pneumoniae; details: N=412

CN(C)c1cc(CNCC(C)(C)C)c(O)c2c1C[C@H]1C[C@H]3[C@H](N(C)C)C(O)=C(C(N)=O)C(=O)[C@@]3(O)C(O)=C1C2=O [Compound 1, 9-[(2,2-dimethyl-propylamino)-methyl]-minocycline]
reported MIC against E. coli [1]: 0.5 to 2 µg/mL
concentration of radioactivity, kidney pelvis ([2]; IV, 5 minutes post dose): 11,300 ng/g
concentration of radioactivity, blood ([2]; IV, 24 hrs post dose): 57.6 ng/mL
AUCinf, blood ([2]; oral dosing): 3030 ng·h/mL
AUCinf, kidney cortex ([2]; oral dosing): 11,000 ng*h/ml
AUCinf, kidney medulla ([2]; oral dosing): 10,900 ng*h/ml
AUCinf, kidney pelvis ([2]; oral dosing): 10,500 ng*h/ml
Cmax, blood ([2]; oral dosing): 125 ng/mL
Cmax, kidney cortex ([2]; oral dosing): 721 ng/g
Cmax, kidney medulla ([2]; oral dosing): 722 ng/g
Cmax, kidney pelvis ([2]; oral dosing): 1580 ng/g
less bioburden of biofilm compared to control ([3]; 0.183 μg/mL (approx. 15% of MIC)): approx. 2 log units
lower total bioburden of biofilm vs controls ([3]; 0.743 μg/mL, 24 hour incubation): 3-4 log units
reduction of mean biofilm formation compared to controls ([3]; 0.74 p g/mL, high and low inoculum conditions, respectively): 3 to 4 log units
inhibition of biofilm formation ([3]; all doses above the MIC): strongly inhibits biofilm formation
induction of biofilm formation ([3]; sub-MIC doses): fail to induce biofilm formation
activity in urine relative to standard media [4]: stable
potential for drug-drug interactions [5]: low potential for drug-drug interactions
absorbed dose eliminated in the urine ([6]; human, in vivo, po): approximately 40%
estimated concentrations in urine, average over 24 hours ([6]; human, in vivo, po): 7.6 and 11.2
urine concentration relative to 4 μg/mL (MIC90 for ESBL-producing E. coli) ([6]; human, in vivo, po): approximately 2 fold
AUC(0-inf) ([6]; human, in vivo, po, plasma AUC0-inf): 9400 ng·h/mL
AUC(0-inf) ([6]; human, in vivo, po, plasma AUCinf): 9420 ng·h/mL
plasma Cmax ([6]; single oral 300 mg dose, healthy subjects): 563 ng/mL
dose excreted in the urine ([7]; first 24 hours): 25%
dose excreted in the urine ([7]; total): approximately 30%
concentration of radioactivity, blood ([7]; IV, 5 minutes post dose): 1,570 ng/ml
concentration of radioactivity, kidney cortex ([7]; IV, 5 minutes post dose): 12,700 ng/g
concentration of radioactivity, kidney medulla ([7]; IV, 5 minutes post dose): 11,500 ng/g
concentration of radioactivity, kidney cortex ([7]; IV, 24 hrs post dose): 318 ng/g
concentration of radioactivity, kidney medulla ([7]; IV, 24 hrs post dose): 167 ng/g
concentration of radioactivity, kidney pelvis ([7]; IV, 24 hrs post dose): 161 ng/g
Cumulative % Inhibition at MIC ([8]; MIC 1 μg/ml): 15.3%
Cumulative % Inhibition at MIC ([8]; MIC 2 μg/ml): 48.8%
Cumulative % Inhibition at MIC ([8]; MIC 4 μg/ml): 72.6%
Cumulative % Inhibition at MIC ([8]; MIC 8 μg/ml): 86.7%
Cumulative % Inhibition at MIC ([8]; MIC 16 μg/ml): 92.7%
Cumulative % Inhibition at MIC ([8]; MIC ≤0.5 μg/ml, listed as head image P00012): 1.2%
Cumulative % Inhibition at MIC ([8]; MIC ≥32 μg/ml): 100%

— patent US10238670B2, “9-aminomethyl minocycline compounds and methods of use thereof in urinary tract infection (UTI) treatment” (Paratek Pharmaceuticals, Inc., priority 2016, dated 2019)
